Assay results from patent US4721775A, “Effective peptides related to the luteinizing hormone releasing hormone from L-amino acids” (Board of Regents, The University of Texas System, priority 1985, dated 1988).
Where “and” joins values, the source holds several entries; their conditions need not be identical. Equal entries are not always repeated. Entries after “also recorded” stand apart in the source; their conditions may differ. Non-standard residues stand in square brackets, D forms with d. Residues, ends and D or L forms follow the SMILES beside them. pGlu = O=C1CC[C@@H](C(=O)O)N1

Legend:
Type in all cases: in vivo
[1] = system: release of LH; assay: Release of LH in rats after sc injection
Text: (§1) The data on the release of LH and FSH in rats by modifications of LHRH with one structural change are in Table II.
(§2) Exclusive of the salmon-LHRH, only one of the six decapeptides with two structural changes had significant activity.

[2] = system: release of FSH; assay: Release of FSH in rats after sc injection; details: for FSH % change: LHRH = 100
Text: as §1, §2

[3] = system: release of FSH; assay: Release of FSH in rats after sc injection; details: dose and time as stated in the source
[4] = 15 min. after sc injection, 100 ng, LHRH = 100
[5] = 15 min. after sc injection, 1000 ng, LHRH = 100
[6] = 60 min. after sc injection, 300 ng, LHRH = 100
[7] = 60 min. after sc injection, 3000 ng, LHRH = 100
[8] = release 15 min. after sc injection, dosage of peptide 100 ng
[9] = release 15 min. after sc injection, dosage of peptide 1000 ng
[10] = release 60 min. after sc injection, dosage of peptide 300 ng
[11] = release 60 min. after sc injection, dosage of peptide 3000 ng
[12] = 60 min. after sc injection, 300 ng
[13] = 60 min. after sc injection, 3000 ng
[14] = 15 min. after sc injection, 100 ng, experiment marked *
[15] = 15 min. after sc injection, 1000 ng, experiment marked *
[16] = release 15 min. after sc injection, dosage of peptide 50 ng
[17] = release 30 min. after sc injection, dosage of peptide 50 ng
[18] = release 30 min. after sc injection, dosage of peptide 1000 ng

Row | SMILES | LH % change [1, 4] [%] | LH % change [1, 5] [%] | LH % change [1, 6] [%] | LH % change [1, 7] [%] | LH [1, 8] [ng/mL] | LH [1, 9] | LH [1, 10] [ng/mL] | LH [1, 11] [ng/mL] | FSH % change [2, 12] [%] | FSH % change [2, 13] [%] | FSH [2, 8] [ng/mL] | FSH [2, 9] | FSH [2, 10] [ng/mL] | FSH [2, 11] [ng/mL] | release of FSH compared with LHRH [3] | further results
1 | CC(C)C[C@H](NC(=O)CNC(=O)[C@H](Cc1c[nH]cn1)NC(=O)[C@H](CO)NC(=O)[C@H](Cc1c[nH]c2ccccc12)NC(=O)[C@H](Cc1c[nH]cn1)NC(=O)[C@@H]1CCC(=O)N1)C(=O)N[C@@H](CCC(N)=O)C(=O)N1CCC[C@H]1C(=O)NCC(N)=O [[His^5 Gln^8]--LHRH, p-Glu His Trp Ser His Gly Leu Gln Pro Gly-NH2] ([pGlu]HWSHGLQPG-NH2) | 29 | 47 | 30 | 8.3 | 7 | 27 ng/mL | 3.3 | 6.8 | 48 | 39 | 343 | 416 ng/mL | 283 | 456 | – | –
2 | CC(C)C[C@H](NC(=O)CNC(=O)[C@H](Cc1c[nH]cn1)NC(=O)[C@H](CO)NC(=O)[C@H](Cc1c[nH]c2ccccc12)NC(=O)[C@H](Cc1c[nH]cn1)NC(=O)[C@@H]1CCC(=O)N1)C(=O)N[C@@H](CC(C)C)C(=O)N1CCC[C@H]1C(=O)NCC(N)=O [[His^5 Leu^8]--LHRH, p-Glu His Trp Ser His Gly Leu Leu Pro Gly-NH2] ([pGlu]HWSHGLLPG-NH2) | 0.8 | 5 | 20 | 2.2 | 0.2 | 3.3 ng/mL | 2.2 | 1.8 | 44 | 18 | 202 | 276 ng/mL | 261 | 205 | – | FSH % change ([2]; 15 min. after sc injection, 100 ng): 43%; FSH % change ([2]; 15 min. after sc injection, 1000 ng): 57%
3 | CC(C)C[C@H](NC(=O)[C@H](Cc1c[nH]c2ccccc12)NC(=O)CNC(=O)[C@H](Cc1c[nH]cn1)NC(=O)[C@H](CO)NC(=O)[C@H](Cc1c[nH]c2ccccc12)NC(=O)[C@H](Cc1c[nH]cn1)NC(=O)[C@@H]1CCC(=O)N1)C(=O)N1CCC[C@H]1C(=O)NCC(N)=O [[His^5 Trp^7 Leu^8]--LHRH, p-Glu His Trp Ser His Gly Trp Leu Pro Gly-NH2] ([pGlu]HWSHGWLPG-NH2) | 38 | 40 | 23 | 6 | 9 | 23 ng/mL | 2.5 | 5 | 62 | 32 | 383 | 445 ng/mL | 369 | 376 | equivalent in activity to LHRH | LH released, % of the LH released by LHRH ([1]; levels of 100 and 1000 ng): up to 50%; release of FSH compared with LHRH ([3]; Trp^7 Leu^8 ]-LHRH): released as much FSH as LHRH
4 | N=C(N)NCCC[C@H](NC(=O)[C@H](Cc1c[nH]c2ccccc12)NC(=O)CNC(=O)[C@H](Cc1c[nH]cn1)NC(=O)[C@H](CO)NC(=O)[C@H](Cc1c[nH]c2ccccc12)NC(=O)[C@H](Cc1c[nH]cn1)NC(=O)[C@@H]1CCC(=O)N1)C(=O)N1CCC[C@H]1C(=O)NCC(N)=O [[His^5 Trp^7]--LHRH, p-Glu His Trp Ser His Gly Trp Arg Pro Gly-NH2] ([pGlu]HWSHGWRPG-NH2) | – | – | – | – | 30 | 39 ng/mL and 78 ng/mL | 26.0 | 138 | – | – | 502 | 562 ng/mL and 429 ng/mL | 624 | 1448 | as active as LHRH; also recorded: equivalent to that from LH; also recorded: released significantly more LH and FSH than did LHRH at a dosage of 50 ng; also recorded: equivalent to that released by the same dosage of LHRH; also recorded: higher than that for LH; also recorded: both peptides had comparable activities | LH % change ([1]; 15 min. after sc injection, 50 ng, LHRH = 100): 188%; LH [1, 14]: 13 ng/mL; LH [1, 15]: 23 ng/mL; LH % change ([1]; 15 min. after sc injection, 1000 ng, experiment marked *, LHRH* = 100): 59%; LH % change ([1]; 30 min. after sc injection, 50 ng, LHRH = 100): 67%; LH % change ([1]; 30 min. after sc injection, 1000 ng, LHRH = 100): 40%; LH [1, 16]: 30 ± 3 ng/mL; LH [1, 17]: 12 ng/mL; LH [1, 18]: 51 ng/mL; release of LH compared with LHRH ([1]; sc injection, dose and time as stated in the source): as active as LHRH; also recorded: significantly positive, but less than that at the higher dosage; also recorded: released significantly more LH and FSH than did LHRH at a dosage of 50 ng; also recorded: equivalent to that released by the same dosage of LHRH; also recorded: significantly positive, but lower than that released at the higher dose level; also recorded: both peptides had comparable activities; FSH % change ([2]; 15 min. after sc injection, 50 ng): 121%; FSH [2, 14]: 346 ng/mL; FSH [2, 15]: 456 ng/mL; FSH [2, 16]: 663 ng/mL; FSH [2, 17]: 387 ng/mL; FSH [2, 18]: 857 ng/mL
